Data from ChEMBL document CHEMBL1201862, “PubChem BioAssay data set” (2004).
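How tested: cells in 96-well plates exposed to compound for 48 hours at five concentrations. Here, GI50 denotes the concentration required for 50% inhibition of growth.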 The source made the active and inactive calls. Cut-off read from the data, not from the text of the source: active = GI50 up to about 1.1 µM and inactive = higher. Peptide text beside a SMILES is read from it.

Legend:
Assay in all cases: NCI anticancer screen, dose series, 48 h
NCI/ADR-RES = system: NCI/ADR-RES
SNB-75 = system: SNB-75
NCI-H460 = system: NCI-H460
MCF7 = system: MCF7
RPMI-8226 = system: RPMI-8226
SK-MEL-28 = system: SK-MEL-28
OVCAR-5 = system: OVCAR-5
Hs-578T = system: Hs-578T
EKVX = system: EKVX
MDA-MB-231 = system: MDA-MB-231
A549 = system: A549
TK-10 = system: TK-10
IGROV-1 = system: IGROV-1
SNB-19 = system: SNB-19
HCT-116 = system: HCT-116
UO-31 = system: UO-31
OVCAR-4 = system: OVCAR-4
SR = system: SR
SK-MEL-2 = system: SK-MEL-2
NCI-H522 = system: NCI-H522

Measured: GI50

CC1(C)CC(=O)C2=C(C1)NC1=C(C2)C(=O)CC(C)(C)C1
inactive: NCI/ADR-RES > 100 µM | SNB-75 > 100 µM | NCI-H460 > 100 µM | MCF7 > 100 µM | RPMI-8226 > 100 µM | SK-MEL-28 > 100 µM | OVCAR-5 > 100 µM | Hs-578T > 100 µM | EKVX > 100 µM | MDA-MB-231 > 100 µM | A549 > 100 µM | TK-10 > 100 µM | IGROV-1 > 100 µM | SNB-19 > 100 µM | HCT-116 > 100 µM | UO-31 > 100 µM | OVCAR-4 > 100 µM | SR > 100 µM

CC(=O)C(=[N+]=[N-])C(=O)OC(C)(C)C#N
inactive: NCI/ADR-RES > 10 µM | SNB-75 1.48 µM | NCI-H460 > 10 µM | MCF7 > 10 µM | RPMI-8226 > 10 µM | SK-MEL-28 > 10 µM | OVCAR-5 > 10 µM | Hs-578T > 10 µM | EKVX > 10 µM | MDA-MB-231 > 10 µM | A549 > 10 µM | SK-MEL-2 > 10 µM | TK-10 > 10 µM | IGROV-1 > 10 µM | SNB-19 > 10 µM | HCT-116 > 10 µM | UO-31 > 10 µM | OVCAR-4 > 10 µM | SR > 10 µM

CC(C)CC(NC(=O)C(CC(C)C)NC(=O)C(Cc1c[nH]cn1)NC(=O)C(C)NC(=O)C(NC(=O)C(C)NC(=O)C(Cc1c[nH]c2ccccc12)NC(=O)C(CCC(=O)O)NC(=O)C(N)Cc1ccccc1)C(C)C)C(N)=O (configuration not stated) (H-FEWAVAHLL-NH2; configuration not given here)
inactive: NCI/ADR-RES > 12.5 µM | SNB-75 > 100 µM | NCI-H460 > 12.5 µM | MCF7 > 12.5 µM | RPMI-8226 > 12.5 µM | NCI-H522 > 12.5 µM | SK-MEL-28 63.4 µM | OVCAR-5 > 12.5 µM | Hs-578T > 12.5 µM | EKVX > 12.5 µM | MDA-MB-231 > 12.5 µM | A549 > 12.5 µM | SK-MEL-2 > 12.5 µM | IGROV-1 > 12.5 µM | SNB-19 > 100 µM | HCT-116 > 12.5 µM | UO-31 > 12.5 µM | OVCAR-4 > 12.5 µM

COC(=O)[C@H]1NC(=O)CCSSC1(C)C
inactive: NCI/ADR-RES > 100 µM | MCF7 > 100 µM | RPMI-8226 > 100 µM | NCI-H522 > 100 µM | SK-MEL-28 > 100 µM | OVCAR-5 > 100 µM | Hs-578T > 100 µM | EKVX > 100 µM | MDA-MB-231 > 100 µM | A549 > 100 µM | SK-MEL-2 > 100 µM | TK-10 > 100 µM | IGROV-1 > 100 µM | SNB-19 > 100 µM | HCT-116 > 100 µM | UO-31 > 100 µM | OVCAR-4 > 100 µM

O=S(=O)(O)c1cc(Nc2ccnc3ccccc23)c2c(S(=O)(=O)O)cc(S(=O)(=O)O)cc2c1
inactive: NCI/ADR-RES > 100 µM | SNB-75 > 100 µM | NCI-H460 > 100 µM | MCF7 > 100 µM | RPMI-8226 > 100 µM | NCI-H522 > 100 µM | SK-MEL-28 > 100 µM | OVCAR-5 > 100 µM | Hs-578T > 100 µM | EKVX > 100 µM | MDA-MB-231 > 100 µM | A549 > 100 µM | SK-MEL-2 > 100 µM | TK-10 > 100 µM | IGROV-1 > 100 µM | HCT-116 > 100 µM | UO-31 > 100 µM | OVCAR-4 > 100 µM

O=C(C(=O)c1cc(-c2ccccc2)nc2ccc3ccccc3c12)c1ccccc1
inactive: NCI/ADR-RES 97.7 µM | SNB-75 18.4 µM | NCI-H460 > 100 µM | MCF7 28.1 µM | RPMI-8226 > 100 µM | SK-MEL-28 28.6 µM | OVCAR-5 > 100 µM | Hs-578T 20.7 µM | EKVX 76.9 µM | MDA-MB-231 > 100 µM | A549 68.4 µM | TK-10 99.3 µM | IGROV-1 37.9 µM | SNB-19 35.9 µM | HCT-116 10.6 µM | UO-31 > 100 µM | OVCAR-4 21.1 µM | SR 11.7 µM

Cc1cccc(C)c1NC(=O)/C=C/c1ccccc1
inactive: SNB-75 31.2 µM | NCI-H460 > 100 µM | MCF7 > 100 µM | RPMI-8226 > 100 µM | NCI-H522 18.8 µM | SK-MEL-28 > 100 µM | OVCAR-5 > 100 µM | Hs-578T 24.6 µM | EKVX 67 µM | MDA-MB-231 > 100 µM | A549 > 100 µM | SK-MEL-2 > 100 µM | TK-10 > 100 µM | SNB-19 > 100 µM | HCT-116 > 100 µM | OVCAR-4 > 100 µM | SR > 100 µM

CC(C)c1c(O[Si](C(C)C)(C(C)C)C(C)C)cc2c(c1O)CC[C@H]1C(C)(C)CCC[C@]21C
inactive: NCI/ADR-RES > 100 µM | SNB-75 50.6 µM | NCI-H460 > 100 µM | MCF7 > 100 µM | RPMI-8226 45.7 µM | NCI-H522 47.2 µM | SK-MEL-28 > 100 µM | OVCAR-5 > 100 µM | Hs-578T > 100 µM | EKVX > 100 µM | MDA-MB-231 > 100 µM | A549 > 100 µM | SK-MEL-2 > 100 µM | TK-10 6.12 µM | IGROV-1 > 100 µM | SNB-19 > 100 µM | HCT-116 > 100 µM | UO-31 > 100 µM | OVCAR-4 > 100 µM

COc1nc(N)c(NC2OC(CO)C(O)C2O)c(=O)[nH]1 (configuration not stated)
inactive: NCI/ADR-RES > 100 µM | SNB-75 > 100 µM | NCI-H460 > 100 µM | MCF7 > 100 µM | RPMI-8226 > 100 µM | SK-MEL-28 > 100 µM | OVCAR-5 > 100 µM | Hs-578T > 100 µM | EKVX > 100 µM | MDA-MB-231 > 100 µM | A549 > 100 µM | SK-MEL-2 > 100 µM | TK-10 > 100 µM | IGROV-1 > 100 µM | SNB-19 > 100 µM | HCT-116 > 100 µM | UO-31 > 100 µM | OVCAR-4 > 100 µM | SR > 100 µM

CC(C)CC(NP(=O)(O)OC1OC(C)C(O)C(O)C1O)C(=O)NC(Cc1c[nH]c2ccccc12)C(=O)O (configuration not stated)
inactive: NCI/ADR-RES > 100 µM | SNB-75 > 100 µM | NCI-H460 > 100 µM | MCF7 > 100 µM | RPMI-8226 > 100 µM | NCI-H522 > 100 µM | SK-MEL-28 > 100 µM | OVCAR-5 > 100 µM | Hs-578T > 100 µM | EKVX > 100 µM | MDA-MB-231 > 100 µM | A549 > 100 µM | IGROV-1 > 100 µM | SNB-19 > 100 µM | HCT-116 > 100 µM | UO-31 > 100 µM | OVCAR-4 > 100 µM

O=c1c2ccccc2nc(N/N=C/c2ccccc2O)n1-c1ccccc1
inactive: NCI/ADR-RES 2.27 µM | SNB-75 11 µM | NCI-H460 4.01 µM | MCF7 3.33 µM | NCI-H522 4.84 µM | SK-MEL-28 11.4 µM | OVCAR-5 7.18 µM | Hs-578T 7.82 µM | MDA-MB-231 4.59 µM | A549 4.8 µM | SK-MEL-2 7.67 µM | TK-10 6.43 µM | IGROV-1 5.6 µM | SNB-19 56.5 µM | HCT-116 2.88 µM | UO-31 2.54 µM | OVCAR-4 5.18 µM
